Assay results: ChEMBL document CHEMBL5331051, “Cationic, amphipathic small molecules based on a triazine-piperazine-triazine scaffold as a new class of antimicrobial agents” (Eur J Med Chem, 2022)
In brackets after ≈: the same amount, converted by molar mass. Activity calls are given as the source filed them. The rule behind the calls is not given here.

Experiments:
[1] = tested on: Pseudomonas aeruginosa; experiment: Antibacterial activity against multidrug-resistant Pseudomonas aeruginosa CCARM 2095 strain assessed as bacterial growth inhibition measured at 18 to 24 hrs by microdilution assay; assay type: functional; settings: time 18-24 hrs
[2] = tested on: RAW264.7; experiment: Antiinflammatory activity in LPS-induced mouse RAW264.7 cells assessed as reduction in TNF alpha level at 20 ug/ml measured after 72 hrs by ELISA assay relative to control; assay type: functional
[3] = tested on: Pseudomonas aeruginosa; experiment: Antibacterial activity against Pseudomonas aeruginosa KCTC 1637 strain assessed as bacterial growth inhibition measured at 18 to 24 hrs by microdilution assay; assay type: functional; settings: time 18-24 hrs
[4] = tested on: Staphylococcus aureus; experiment: Antibacterial activity against Staphylococcus aureus KCTC 1621 strain assessed as bacterial growth inhibition measured at 18 to 24 hrs in presence of 150 mM NaCl by microdilution assay; assay type: functional; settings: time 18-24 hrs
[5] = tested on: Enterococcus faecium; experiment: Antibacterial activity against vancomycin-resistant Enterococcus faecium ATCC 51559 strain assessed as bacterial growth inhibition measured at 18 to 24 hrs by microdilution assay; assay type: functional; settings: time 18-24 hrs
[6] = tested on: Staphylococcus aureus; experiment: Additive antibacterial activity against multidrug-resistant Staphylococcus aureus CCARM 3089 strain assessed as fractional inhibitory concentration index in presence of chloramphenicol by checkerboard assay; assay type: functional
[7] = tested on: Staphylococcus aureus; experiment: Additive antibacterial activity against methicillin-resistant Staphylococcus aureus CCARM 3089 strain assessed as bacterial growth inhibition in presence of chloramphenicol by checkerboard assay; assay type: functional
[8] = tested on: Staphylococcus aureus; experiment: Antibacterial activity against Staphylococcus aureus KCTC 1621 strain assessed as bacterial growth inhibition measured at 18 to 24 hrs in presence of 20% human serum by microdilution assay; assay type: functional; settings: time 18-24 hrs
[9] = tested on: RAW264.7; experiment: Antiinflammatory activity in LPS-induced mouse RAW264.7 cells assessed as reduction in NO production at 5 ug/ml measured after 72 hrs by ELISA assay relative to control; assay type: functional
[10] = tested on: Staphylococcus epidermidis; experiment: Antibacterial activity against Staphylococcus epidermidis KCTC 1917 strain assessed as bacterial growth inhibition measured at 18 to 24 hrs by microdilution assay; assay type: functional; settings: time 18-24 hrs
[11] = tested on: Cell membrane; experiment: Induction of cell membrane depolarization in Staphylococcus aureus assessed as increase in fluorescence intensity at 2 times MIC by SYTOX green staining based analysis
[12] = tested on: Lipopolysaccharide (LPS); experiment: Binding affinity to Escherichia coli O111:B4 lipopolysaccharide assessed as suppression of FTIC labeled LPS binding to mouse RAW264.7 cells at 20 ug/ml pretreated with LPS followed by compound addition by flow cytometer assay (reference value: 67.4%); assay type: cell-based; settings: dose 20.0 µg/ml
[13] = tested on: Escherichia coli; experiment: Antibacterial activity against Escherichia coli KCTC 1682 strain assessed as bacterial growth inhibition measured at 18 to 24 hrs in presence of 6 uM NH4Cl by microdilution assay; assay type: functional; settings: time 18-24 hrs
[14] = tested on: Escherichia coli; experiment: Antibacterial activity against Escherichia coli KCTC 1682 strain assessed as bacterial growth inhibition measured at 18 to 24 hrs in presence of 1 mM MgCl2 by microdilution assay; assay type: functional; settings: time 18-24 hrs
[15] = tested on: Staphylococcus aureus; experiment: Antibacterial activity against Staphylococcus aureus KCTC 1621 strain assessed as bacterial growth inhibition measured at 18 to 24 hrs in presence of 4 uM FeCl3 by microdilution assay; assay type: functional; settings: time 18-24 hrs
[16] = tested on: Staphylococcus aureus; experiment: Antibacterial activity against Staphylococcus aureus KCTC 1621 strain assessed as bacterial growth inhibition measured at 18 to 24 hrs in presence of 1 mM MgCl2 by microdilution assay; assay type: functional; settings: time 18-24 hrs
[17] = tested on: Staphylococcus aureus; experiment: Antibacterial activity against Staphylococcus aureus KCTC 1621 strain assessed as bacterial growth inhibition measured at 18 to 24 hrs by microdilution assay; assay type: functional; settings: time 18-24 hrs
[18] = tested on: Escherichia coli; experiment: Antibacterial activity against Escherichia coli KCTC 1682 strain assessed as bacterial growth inhibition measured after 6 hrs in presence of pepsin by radial diffusion assay; assay type: functional, organism-based
[19] = tested on: Staphylococcus aureus; experiment: Antibacterial activity against Staphylococcus aureus KCTC 1621 strain assessed as bacterial growth inhibition measured at 18 to 24 hrs in presence of 6 uM NH4Cl by microdilution assay; assay type: functional; settings: time 18-24 hrs
[20] = tested on: Cell membrane; experiment: Induction of cell membrane depolarization in Staphylococcus aureus assessed as fluorescence intensity at 2 to 16 times MIC by DiSC3(5) dye based fluorescence assay; assay type: subcellular
[21] = tested on: Pseudomonas aeruginosa; experiment: Synergistic antibacterial activity against multidrug-resistant Pseudomonas aeruginosa CCARM 2095 strain assessed as bacterial growth inhibition by checkerboard assay; assay type: functional
[22] = tested on: Staphylococcus aureus; experiment: Synergistic antibacterial activity against multidrug-resistant Staphylococcus aureus CCARM 3089 strain assessed as ciprofloxacin fractional inhibitory concentration by checkerboard assay; assay type: functional
[23] = tested on: Pseudomonas aeruginosa; experiment: Synergistic antibacterial activity against multidrug-resistant Pseudomonas aeruginosa CCARM 2095 strain assessed as bacterial growth inhibition in presence of chloramphenicol by checkerboard assay; assay type: functional
[24] = tested on: Pseudomonas aeruginosa; experiment: Synergistic antibacterial activity against multidrug-resistant Pseudomonas aeruginosa CCARM 2095 strain assessed as chloramphenicol MIC by checkerboard assay; assay type: functional
[25] = tested on: Pseudomonas aeruginosa; experiment: Synergistic antibacterial activity against multidrug-resistant Pseudomonas aeruginosa CCARM 2095 strain assessed as oxacillin MIC by checkerboard assay; assay type: functional
[26] = tested on: Staphylococcus aureus; experiment: Synergistic antibacterial activity against methicillin-resistant Staphylococcus aureus CCARM 3089 strain assessed as fractional inhibitory concentration in presence of oxacillin by checkerboard assay; assay type: functional
[27] = tested on: Staphylococcus aureus; experiment: Additive antibacterial activity against multidrug-resistant Staphylococcus aureus CCARM 3089 strain assessed as oxacillin fractional inhibitory concentration by checkerboard assay; assay type: functional
[28] = tested on: Staphylococcus aureus; experiment: Additive antibacterial activity against multidrug-resistant Staphylococcus aureus CCARM 3089 strain assessed as fractional inhibitory concentration index in presence of oxacillin by checkerboard assay; assay type: functional
[29] = tested on: Pseudomonas aeruginosa; experiment: Synergistic antibacterial activity against multidrug-resistant Pseudomonas aeruginosa CCARM 2095 strain assessed as chloramphenicol fractional inhibitory concentration by checkerboard assay; assay type: functional
[30] = tested on: Pseudomonas aeruginosa; experiment: Synergistic antibacterial activity against multidrug-resistant Pseudomonas aeruginosa CCARM 2095 strain assessed as bacterial growth inhibition in presence of ciprofloxacin by checkerboard assay; assay type: functional
[31] = tested on: Staphylococcus aureus; experiment: Synergistic antibacterial activity against multidrug-resistant Staphylococcus aureus CCARM 3089 strain assessed as fractional inhibitory concentration index in presence of oxacillin by checkerboard assay; assay type: functional
[32] = tested on: Pseudomonas aeruginosa; experiment: Synergistic antibacterial activity against multidrug-resistant Pseudomonas aeruginosa CCARM 2095 strain assessed as ciprofloxacin MIC by checkerboard assay; assay type: functional
[33] = tested on: Staphylococcus aureus; experiment: Additive antibacterial activity against multidrug-resistant Staphylococcus aureus CCARM 3089 strain assessed as ciprofloxacin fractional inhibitory concentration by checkerboard assay; assay type: functional
[34] = tested on: Pseudomonas aeruginosa; experiment: Antibiofilm activity against multidrug-resistant Pseudomonas aeruginosa assessed as inhibition of biofilm formation; assay type: functional
[35] = tested on: Pseudomonas aeruginosa; experiment: Synergistic antibacterial activity against multidrug-resistant Pseudomonas aeruginosa CCARM 2095 strain assessed as ciprofloxacin fractional inhibitory concentration by checkerboard assay; assay type: functional
[36] = tested on: Staphylococcus aureus; experiment: Synergistic antibacterial activity against methicillin-resistant Staphylococcus aureus CCARM 3089 strain assessed as ciprofloxacin MIC by checkerboard assay; assay type: functional
[37] = tested on: Staphylococcus aureus; experiment: Synergistic antibacterial activity against methicillin-resistant Staphylococcus aureus CCARM 3089 strain assessed as oxacillin MIC by checkerboard assay; assay type: functional
[38] = tested on: Pseudomonas aeruginosa; experiment: Synergistic antibacterial activity against multidrug-resistant Pseudomonas aeruginosa CCARM 2095 strain assessed as oxacillin fractional inhibitory concentration in presence of oxacillin by checkerboard assay; assay type: functional

SMILES | MIC [1] [µM] | inhibition at 20 µg/mL [2] [%] | MIC [3] [µM] | MIC [4] [µM] | MIC [5] [µM] | MIC [8] [µM] | inhibition at 5 µg/mL [9] [%] | MIC [10] [µM] | Activity [11] | Flu intensity [12] [%] | MIC [13] [µM] | MIC [14] [µM] | MIC [15] [µM] | MIC [16] [µM] | MIC [17] [µM] | Activity [18] | MIC [19] [µM] | Activity [20] | MIC [21] [µg/mL] | FIC [22] | further results
N=C(N)NCCNc1nc(NCCNC(=N)N)nc(N2CC(Cc3ccccc3)N(c3nc(NCCNC(=N)N)nc(NCCNC(=N)N)n3)CC2Cc2ccccc2)n1 (configuration not stated) | 19.4 (≈ 16 µg/mL) | 99.8 | 4.8 (≈ 3.96 µg/mL) | 4.8 | 38.7 (≈ 31.9 µg/mL) | 9.6 | 68.1 | 4.8 (≈ 3.96 µg/mL) | inactive | 21.1 | 9.7 | 9.7 | 9.6 | 9.6 | 4.8 (≈ 3.96 µg/mL) | Active | 4.8 | inactive |  |  | fractional inhibitory concentration index (FICI) [6]: 0.75; MIC [7]: 4 µg/mL
NCCN(CCN)c1nc(NCc2ccccc2)nc(N2CC(Cc3ccccc3)N(c3nc(NCc4ccccc4)nc(N(CCN)CCN)n3)CC2Cc2ccccc2)n1 (configuration not stated) | 21.4 (≈ 17.9 µg/mL) | 95.6 | 5.4 (≈ 4.52 µg/mL) | 5.4 | 21.4 (≈ 17.9 µg/mL) | 10.8 |  | 2.7 (≈ 2.26 µg/mL) | inactive | 8 | 5.4 | 10.8 | 5.4 | 5.4 | 5.4 (≈ 4.52 µg/mL) | Active | 5.4 | inactive | 16 | 0.125 | MIC [23]: 4 µg/mL; MIC [24]: 256 µg/mL; MIC [25]: 128 µg/mL; FIC [26]: 0.25; FIC [27]: 0.25; fractional inhibitory concentration index (FICI) [28]: 0.5; FIC [29]: 0.25; MIC [30]: 2 µg/mL; fractional inhibitory concentration index (FICI) [31]: 0.5; MIC [32]: 256 µg/mL; FIC [33]: 0.125; MBEC50 [34]: 10.4 µM; MBEC90 [34]: 10.4 µM; MBIC [34]: 5.2 µM; MBIC50 [34]: 1.3 µM; FIC [35]: 0.25; MIC [36]: 64 µg/mL; MIC [37]: 256 µg/mL; FIC [38]: 0.25
NCCCN(CCCN)c1nc(NCc2ccccc2)nc(N2CC(Cc3ccccc3)N(c3nc(NCc4ccccc4)nc(N(CCCN)CCCN)n3)CC2Cc2ccccc2)n1 (configuration not stated) | 20 (≈ 17.9 µg/mL) | 95.4 | 10 (≈ 8.93 µg/mL) | 2.5 | 10 (≈ 8.93 µg/mL) | 10 | 75.7 | 5 (≈ 4.47 µg/mL) | inactive | 13.2 | 5 | 5 | 5 | 10 | 2.5 (≈ 2.23 µg/mL) | Active | 5 | inactive | 16 | 0.125 | MIC [23]: 4 µg/mL; MIC [24]: 128 µg/mL; MIC [25]: 256 µg/mL; FIC [26]: 0.25; FIC [27]: 0.125; fractional inhibitory concentration index (FICI) [28]: 0.375; FIC [29]: 0.125; MIC [30]: 4 µg/mL; fractional inhibitory concentration index (FICI) [31]: 0.375; MIC [32]: 64 µg/mL; FIC [33]: 0.125; MBEC50 [34]: 10 µM; MBEC90 [34]: 39.8 µM; MBIC [34]: 10 µM; MBIC50 [34]: 5 µM; FIC [35]: 0.063; MIC [36]: 64 µg/mL; MIC [37]: 128 µg/mL; FIC [38]: 0.25
